Data set [1] is described as follows: in vivo. To be noted: rat, po, 10 uM/kg.
The nature of data set [2]: in vivo. To be noted: rat.
A short description of data set [3]: in vivo. To be noted: rat, po, 10 umol/kg.
Data set [4] is described as follows: in vivo. Particulars: rat, iv, 10 umol/kg.
A short description of data set [5]: in vivo. To be noted: rat, po, 10 umol/kg. This is another data set of the same source.
Data set [6] in a line: in vivo. Particulars: rat, plasma, iv, 10 umol/kg.
Data set [7] is described as follows: Half life in monkey at intravenous dose of 25 umol/kg. The data set is classed as ADME, organism-based. Particulars: simiiformes, in vivo.
Data set [8] is described as follows: Half life in monkey at oral dose of 25 umol/kg. Type of data set: ADME, organism-based. To be noted: simiiformes, in vivo.
Data set [9] in a line: Cmax value at oral dose of 25 umol/kg in monkey. Also noted: dose 25 umol/kg, route oral. Type of data set: ADME, organism-based. Particulars: simiiformes, in vivo.
The nature of data set [10]: Area under curve at intravenous dose of 25 umol/kg in monkey. Type of data set: ADME. Particulars: simiiformes, in vivo.
Data set [11] is described as follows: Area under curve at oral dose of 25 umol/kg in monkey. Type of data set: ADME. To be noted: simiiformes, in vivo.
A short description of data set [12]: Tested for volume distribution at intravenous dose of 25 umol/kg in monkey. To be noted: simiiformes, in vivo, read-out: Vss. The data set is classed as ADME, organism-based.
The nature of data set [13]: T max value at oral dose of 25 umol/kg in monkey. Type of data set: ADME, organism-based. To be noted: simiiformes, in vivo.
The nature of data set [14]: Tested for plasma clearance at intravenous dose of 25 umol/kg in monkey. Type of data set: ADME, organism-based.
Data set [15] in a line: Percent oral bioavailability at dose of 25 umol/kg in monkey. The data set is classed as ADME, organism-based. To be noted: primates, in vivo.
Data set [16] in a line: in vivo. To be noted: rat, iv, 10 umol/kg. This is another data set of the same source.
The nature of data set [17]: in vivo. To be noted: rat, plasma, iv, 10 umol/kg. This is another data set of the same source.
The next data set is described as follows: in vitro. To be noted: human, Caco-2.

Bounds are passed on as bounds.

For `Cc1onc(NS(=O)(=O)c2ccccc2-c2ccc(-c3ncco3)cc2CN2CCC(C)(C)C2=O)c1C`, the bioavailability (in general, the share of a dose that reaches the circulation, judged against a reference dose that is usually intravenous) in the data set “in vivo [1]” was determined as 78%. Further, the half-life (commonly the time in which the quantity being followed falls by half) in “in vivo [2]” is 4.7 h. Also, the highest level in “in vivo [3]” (Cmax) was 7.7 µM. For the same compound, the Vd in the data set “in vivo [4]” came out at 2.3 L/kg. Also, the Tmax (commonly the time from dosing to the highest level) in the data set “in vivo [5]” came to 0.6 h. In addition, the clearance – broadly, a measure of how efficiently the substance is removed, as volume per time – in “in vivo [6]” is 9.3 mL/min/kg.

With `Cc1onc(NS(=O)(=O)c2ccccc2-c2ccc(-c3ncco3)cc2N(C)C(=O)CC(C)(C)C)c1C`, the half-life in data set [7] is 14 h; in [8], 17 h; in the data set “in vivo [2]”, 3.4 h. In addition, the figures for the peak concentration (Cmax) (in data set [9]; in “in vivo [3]”) were 16.1 µM and 28 µM, respectively. In addition, the AUC (usually concentration integrated over time) in [10] was 161 µM·h; in [11], 41.5 µM·h. Further, the results for the Vd (in data set [12]; in the data set “in vivo [16]”) were 0.25 L/kg and 1.1 L/kg, respectively. In addition, the Tmax was 1.2 h in [13] and 0.4 h in “in vivo [5]”. The clearance came to 2.7 mL/min/kg in [14] and 5.4 mL/min/kg in “in vivo [17]”. For the same compound, the figures for the bioavailability (in data set [15]; in “in vivo [1]”) were 26% and 100%, respectively.

Consider `Cc1noc(NS(=O)(=O)c2ccccc2-c2ccc(-c3ncco3)cc2COCC(C)C)c1C`, for which the Papp (as a rule, a coefficient for how fast a substance crosses the barrier) in “in vitro” was below 3 ×10⁻⁶ cm/s.

Take `Cc1noc(NS(=O)(=O)c2ccccc2-c2ccc(-c3ncco3)cc2/C=C\c2ccccc2)c1C`: the Papp in the data set “in vitro” turned out to be 8.9 ×10⁻⁶ cm/s.

Consider `Cc1noc(NS(=O)(=O)c2ccccc2-c2ccc(-c3ncco3)cc2Cc2ncco2)c1C`, for which the Papp in “in vitro” turned out to be 14.8 ×10⁻⁶ cm/s.

(Values after ChEMBL document CHEMBL1145011 (J Med Chem, 2003).)
